Results reported in patent US12606805B2, “Tymovirus virus and virus-like particles as nanocarriers for imaging and therapeutic agents” (priority 2017, dated 2026).

What was measured:
PhMV-derived VLPs = molecular target: T1, PhMV-derived VLPs (Physalis mottle virus, UniProt P36351); conditions: for Number of molecules loaded per VLP: 5000-fold molar excess per particle; for Number of guest molecules loaded per VLP (affinity of the VLPs): infusion overnight at room temperature, molar excess 500 to 10,000 per VLP
T1 construct: The coat protein gene (564 bp) was inserted into the vector pRSET-A and expressed in ClearColi BL21(DE3); made in house; host or cells: E. coli ClearColi BL21(DE3)
T1 sequence (P36351 whole entry, the tested form may be a part): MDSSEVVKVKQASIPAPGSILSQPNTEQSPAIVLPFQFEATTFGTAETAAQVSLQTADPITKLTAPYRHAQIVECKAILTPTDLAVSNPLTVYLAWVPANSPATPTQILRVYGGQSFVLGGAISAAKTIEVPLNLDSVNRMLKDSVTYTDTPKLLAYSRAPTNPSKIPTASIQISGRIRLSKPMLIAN
Procedure: The VLPs were loaded with rhodamine B, fluorescein, crystal violet, MTX dihydrochloride (all Sigma-Aldrich), PS (cationic zinc ethynylphenyl porphyrin, full name 5-(4-ethynylphenyl)-10,15,20-tris)4-methylpyridin-4-ium-1-yl)porphyrin zinc(II) triiodide), or DOX hydrochloride (Indofine Chemical Company). The VLPs (1 mg/mL in KP buffer) were incubated with a molar excess of 500, 2500, 5000, or 10000 cargo molecules per particle overnight at room temperature in the dark, before purification over a 30% (w/v) sucrose cushion to remove excess reagents by ultracentrifugation at 52,000 rpm using a TLA 55 rotor (Beckman Coulter Inc.) at 4° C. for 1 h. PS-PhMV and DOX-PhMV were synthesized for further characterization using a 5000-fold molar excess.
A NanoDrop 2000 spectrophotometer (Thermo Fisher Scientific) was used to characterize the UV/visible spectra of native and modified VLPs. The dye load was determined using the protein concentration (measured using the Bradford assay), the Beer-Lambert law and the following dye-specific extinction coefficients: rhodamine B, F(553 nm)=116,000 M^−1 cm^−1; DOX, ε(496 nm)=11,500 M^−1 cm^−1; crystal violet, ε(590 nm)=87,000 M^−1 cm^−1; PS, ε(450 nm)=195,000 M^−1 cm^−1; MTX, ε(622 nm)=25,000 M^−1 cm^−1; sulfo-Cy5 NHS ester, ε(646 nm)=271,000 M^−1 cm^−1; Cy5.5-maleimide, 8(673 nm)=209,000 M^−1 cm^−1. The following molecular weights were used: PhMV=4.7×10^6 g mol^−1; rhodamine B=479.02 g mol^−1; DOX=579.98 g mol^−1; crystal violet=407.98 g mol^−1; PS=1130 g mol^−1; mitoxantrone=517.4 g mol^−1; Cy5=777.95 g mol^−1; Cy5.5=741.36 g mol^−1; Biotin NHS ester=341.38 g mol^−1; Biotin maleimide=451.54 g mol^−1.
Intact VLPs were incubated in a bathing solution containing the guest molecule at various molar excesses (500, 2500, 5000 and 10,000 molecules per VLP) in KP buffer with 10% (v/v) DMSO overnight at room temperature. After the reaction, excess guest molecules were removed by ultracentrifugation and the amount of protein and cargo was quantified by the Bradford assay and UV/visible spectroscopy, respectively. We applied the Beer-Lambert law and the specific extinction coefficient of each guest molecule to determine the number of cargo molecules per VLP (FIG. 5).

[1] = system: A2780 (human ovarian cancer) cells; assay: MTT cell viability assay, DOX-PhMV versus DOX; type: cell-based; conditions: 24 h
Procedure: All assays were carried out at least three times.

PC-3 cells [2] = assay: LIVE/DEAD assay after photodynamic therapy; type: cell-based, human
Procedure: PC-3 cells were seeded (20,000 cells/500 μL RPMI/well) in a 24-well plate overnight. The cells were washed twice in PBS and incubated for 8 h in triplicates with 5.0 μM PS, 5.0 μM PS-PhMV, or the corresponding concentration of unloaded VLPs ([…] or ˜0.19 mg/mL). After washing twice in PBS, 500 μL RPMI medium was added. Photodynamic therapy was then applied using a white light source (Phillips Silhouette High Output F39T5/841 HO, Alto collection, ˜10 mW cm^−2) for 30 min (18.1 J cm^−2 at 430 nm) and cells were incubated for a further 48 h in the dark. Cell viability was determined using a LIVE/DEAD assay for mammalian cells (Thermo Fisher Scientific) following the manufacturer's procedures for cell staining, and cells were observed under a Zeiss Axio Observer Z1 motorized FL inverted microscope.

PC-3 cells [3] = assay: MTT cell viability assay after photodynamic therapy
Procedure: PC-3 cells were seeded (5000 cells/100 μL RPMI 1640/well) in a 96-well plate overnight. After two PBS washes to remove unbound and dead cells, free PS, or PS-PhMV was added to the cells in triplicate at concentrations of 0.01, 0.025, 0.05, 0.1, 0.25, 0.5, 1, 2.5 and 5.0 μM PS, and incubated for 8 h. Untreated cells and cells treated with unloaded VLPs at the equivalent protein concentration to PS-PhMV particles at the highest dose of PS were also used as controls. Free particles were washed with PBS and 100 μL of fresh medium was added. The cells were then illuminated with white light for 30 min as above. In parallel, a duplicate plate was prepared and kept in the dark as a negative control. Following phototherapy, cells were incubated for another 48 h in the dark, and their viability was subsequently measured using an MTT cell proliferation assay kit (ATCC) based on the manufacturer's instructions. A Tecan Infinite 200 PRO multimode plate reader was used to measure absorbance at 570 nm, and the percent cell viability was normalized to the untreated control. All assays were carried out at least three times.

Row | Structure (SMILES) | Number of molecules loaded per VLP (PhMV-derived VLPs) | Number of guest molecules loaded per VLP (affinity of the VLPs) (PhMV-derived VLPs) [molecules per particle] | further results
1 | COc1cccc2c1C(=O)c1c(O)c3c(c(O)c1C2=O)C[C@@](O)(C(=O)CO)C[C@@H]3O[C@H]1C[C@H](N)[C@H](O)[C@H](C)O1 [DOX, doxorubicin] | 600-800 molecules per VLP | 750 | IC50 (MTT) [1]: equivalent
2 | C#Cc1ccc(C2=C3C=CC(=N3)C(c3cc[n+](C)cc3)=c3ccc4[n]3[Zn][n]3c2ccc3C(c2cc[n+](C)cc2)=C2C=CC(=N2)C=4c2cc[n+](C)cc2)cc1.[I-].[I-].[I-] [PS] | 160-180 molecules per VLP | ~200 | Cell viability (LIVE/DEAD), dark controls (PC-3 cells [2]; 5.0 μM, 8 h, maintained in the dark): 100%; Cell viability (LIVE/DEAD), illuminated (PC-3 cells [2]; 5.0 μM, 8 h, white light 30 min): 0%; Cytotoxicity of dark controls (LIVE/DEAD) (PC-3 cells [2]; dark controls): no cytotoxicity; Cytotoxicity of dark controls (MTT) (PC-3 cells [3]; PC-3 cells kept in the dark): no cell killing; IC50 (PC-3 cells [3]; read-out: IC50 (cell killing, MTT), PC-3 cells, 8 h incubation, 30 min white light illumination): 0.05 µM
3 | CN(C)c1ccc(C(=C2C=CC(=[N+](C)C)C=C2)c2ccc(N(C)C)cc2)cc1 [crystal violet] |  | 2000 | 
4 | CCN(CC)c1ccc2c(-c3ccccc3C(=O)O)c3ccc(=[N+](CC)CC)cc-3oc2c1.[Cl-] [rhodamine B] |  | ~200 | 
5 | O=C1c2c(O)ccc(O)c2C(=O)c2c(NCCNCCO)ccc(NCCNCCO)c21 [MTX, mitoxantrone] |  | 450 | 
